The conditions of series [1]: in vivo; cited from earlier work.
Series [2] concerns TBI. Put plainly: Treatment of subjects with TBI at the starting dose. The note with it: starting dose (29 μg/kg/hr), 11 subjects with TBI.
The test system of series [3] is SRSE. Briefly: Continuous infusion allopregnanolone under emergency-use INDs for SRSE.
Series [4] concerns essential tremor. Put plainly: Clinical trial of allopregnanolone injection in essential tremor (Stage One placebo-controlled crossover, low-dose; Stage Two open-label, high-dose).
The nature of series [5]: Other clinical studies and experience to date with intravenous allopregnanolone. The note with it: all AEs reported to date.
For series [6], the system named is severe postpartum depression (PPD). Briefly: Clinical study of allopregnanolone injection in adult female patients with severe postpartum depression.

This is an account of results in patent US12083131B2 (priority 2014, dated 2024).

A value given as a limit tells only on which side of the number the result lay.

As for `Cc1ncc2n1-c1ccc(Cl)cc1C(c1ccccc1F)=NC2` [midazolam], in series [1], the “Exposure of breast-feeding infant” value is recorded as “less than 0.1 % of the maternal dose”.
As for `CC(=O)[C@H]1CC[C@H]2[C@@H]3CC[C@H]4C[C@H](O)CC[C@]4(C)[C@H]3CC[C@]12C` [allopregnanolone, 3 alpha-hydroxy-5 alpha-pregnan-20-one], the “SAEs at the starting dose” value in series [2] is listed as “no SAEs reported”. In addition, in series [3] (150 nM exposure, 6 subjects with SRSE, continuous infusion), the “Drug-related SAEs at the target/maximum level of exposure” value is listed as “no drug-related SAEs reported”. The “Drug-related serious adverse events at maintenance dose” value in series [3] (150 mcg/kg/hour, six subjects with SRSE) is “without any drug-related serious adverse events”. In addition, in series [4] (86 mcg/kg/hour, Stage One), the “Tolerability of the maintenance dose” value was “good tolerability”. This compound came in with an Adverse events reported in series [4] (Stage One, arms not distinguished, one case each of phlebitis, somnolence, abnormal dreams, back pain, nasal congestion, headache, fatigue, nausea, two cases of dizziness) of 10. Moreover, in series [4] (conclusion of Stage One), the “Sedation scores versus placebo” value was “no clear difference”. The “Measures of activity in essential tremor (accelerometer and TETRAS scores) versus placebo” value in series [4] (conclusion of Stage One, maintenance dose 86 mcg/kg/hour) is listed as “no clear difference”. The “AEs reported to date” value in series [5] is “mild and non-serious”. The “Response (relief from symptoms) after treatment” value in series [6] (after treatment) is “sustained”. In addition, in series [6] (all four patients), the “Clinical Global Impression-Improvement (CGI-I) scale” value is given as “consistent improvement” and the “Remission as measured by HAM-D during the treatment period” value is recorded as “rapidly achieved remission”. The Tolerability result in series [6] (all patients, on therapy or during the 30-day follow-up period) is reported as “well-tolerated”. Besides, the “Time to improvement of symptoms after treatment” value in series [6] (four patients (e.g., within 24 hours, within 12 hours after treatment)) was “one”. Besides, the “Mean HAM-D score at baseline” value in series [6] (four patients, baseline, >24.0 is severe) worked out at 26.5. The “Mean HAM-D score by the end of the treatment period” value in series [6] (four patients, end of treatment period, below 7.0 is symptom-free) is listed as 1.8. The “Time to improvement in depression after administration” value in series [6] (four women with severe PPD) is ≤ 24 h. The “Improvement in depression, number of women” value in series [6] (women with severe PPD, intravenous administration) was “four of four”.
On to `CC(C)c1cccc(C(C)C)c1O` [propofol], for which the “Exposure of breast-feeding infant” value in series [1] is reported as “less than 0.1 % of the maternal dose”.
